Source: PubChem BioAssay (NCI)
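Test compounds were applied to cells in 96-well plates for 48 hours at 5 doses. At the GI50, growth is halved. TGI: total growth inhibition.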

Tests used:
Assay in all cases: NCI anticancer screen, dose series, 48 h
ACHN renal = test system: ACHN renal
MOLT-4 leukemia = test system: MOLT-4 leukemia
UACC-257 melanoma = test system: UACC-257 melanoma
MCF7 breast = test system: MCF7 breast
IGROV1 ovarian = test system: IGROV1 ovarian
PC-3 prostate = test system: PC-3 prostate
786-0 renal = test system: 786-0 renal
OVCAR-3 ovarian = test system: OVCAR-3 ovarian
HT29 colon = test system: HT29 colon
NCI/ADR-RES ovarian = test system: NCI/ADR-RES ovarian
RXF 393 renal = test system: RXF 393 renal
UACC-62 melanoma = test system: UACC-62 melanoma
U251 CNS = test system: U251 CNS
NCI-H522 lung = test system: NCI-H522 lung
NCI-H460 lung = test system: NCI-H460 lung
M14 melanoma = test system: M14 melanoma
TK-10 renal = test system: TK-10 renal
UO-31 renal = test system: UO-31 renal
HL-60(TB) leukemia = test system: HL-60(TB) leukemia
SF-268 CNS = test system: SF-268 CNS
A549 NSCLC = test system: A549 NSCLC
CAKI-1 renal = test system: CAKI-1 renal
SK-MEL-28 melanoma = test system: SK-MEL-28 melanoma
OVCAR-5 ovarian = test system: OVCAR-5 ovarian
SK-OV-3 ovarian = test system: SK-OV-3 ovarian
MDA-MB-435 = test system: MDA-MB-435
OVCAR-4 ovarian = test system: OVCAR-4 ovarian
BT-549 breast = test system: BT-549 breast

Structure (SMILES): O=C(C[P+](c1ccccc1)(c1ccccc1)c1ccccc1)C[P+](c1ccccc1)(c1ccccc1)c1ccccc1
- GI50 (ACHN renal): 0.144 µM
- TGI (ACHN renal): 0.393 µM
- GI50 (MOLT-4 leukemia): 0.292 µM
- TGI (MOLT-4 leukemia): 4.08 µM
- GI50 (UACC-257 melanoma): 0.416 µM
- TGI (UACC-257 melanoma): 1.28 µM
- GI50 (MCF7 breast): 0.332 µM
- TGI (MCF7 breast): 1.6 µM
- GI50 (IGROV1 ovarian): 0.774 µM
- TGI (IGROV1 ovarian): 2.56 µM
- GI50 (PC-3 prostate): 0.938 µM
- TGI (PC-3 prostate): 2.51 µM
- GI50 (786-0 renal): 0.496 µM
- TGI (786-0 renal): 1.16 µM
- GI50 (OVCAR-3 ovarian): 0.296 µM
- TGI (OVCAR-3 ovarian): 0.807 µM
- GI50 (HT29 colon): 0.285 µM
- TGI (HT29 colon): 0.734 µM
- GI50 (NCI/ADR-RES ovarian): 0.383 µM
- TGI (NCI/ADR-RES ovarian): 11 µM
- GI50 (RXF 393 renal): 0.2 µM
- TGI (RXF 393 renal): 0.605 µM
- GI50 (UACC-62 melanoma): 0.256 µM
- TGI (UACC-62 melanoma): 0.865 µM
- GI50 (U251 CNS): 0.828 µM
- TGI (U251 CNS): 2.23 µM
- GI50 (NCI-H522 lung): 0.141 µM
- TGI (NCI-H522 lung): 0.325 µM
- GI50 (NCI-H460 lung): 0.546 µM
- TGI (NCI-H460 lung): 2.3 µM
- GI50 (M14 melanoma): 0.387 µM
- TGI (M14 melanoma): 1.46 µM
- GI50 (TK-10 renal): 0.326 µM
- TGI (TK-10 renal): 1.09 µM
- GI50 (UO-31 renal): 0.218 µM
- TGI (UO-31 renal): 0.855 µM
- GI50 (HL-60(TB) leukemia): 0.256 µM
- TGI (HL-60(TB) leukemia): 2.57 µM
- GI50 (SF-268 CNS): 0.591 µM
- TGI (SF-268 CNS): 1.95 µM
- GI50 (A549 NSCLC): 0.81 µM
- TGI (A549 NSCLC): 3.04 µM
- GI50 (CAKI-1 renal): 0.161 µM
- TGI (CAKI-1 renal): 0.357 µM
- GI50 (SK-MEL-28 melanoma): 0.332 µM
- TGI (SK-MEL-28 melanoma): 1.29 µM
- GI50 (OVCAR-5 ovarian): 0.263 µM
- TGI (OVCAR-5 ovarian): 0.832 µM
- GI50 (SK-OV-3 ovarian): 1.49 µM
- TGI (SK-OV-3 ovarian): 3.17 µM
- GI50 (MDA-MB-435): 0.233 µM
- TGI (MDA-MB-435): 0.666 µM
- GI50 (OVCAR-4 ovarian): 0.135 µM
- TGI (OVCAR-4 ovarian): 0.269 µM
- GI50 (BT-549 breast): 0.363 µM
- TGI (BT-549 breast): 1.24 µM
